Measurements: US8410289B2, “Spirocyclic 3'-alkoxytetramic acids and-tetronic acids” (Bayer Cropscience AG, priority 2004, dated 2013)

Key:
Summer wheat = assay: Herbicidal post-emergence action with/without safener (Example H, container trials with cereals, greenhouse or outdoors); assay type: in vivo
Protocol: (§1) Herbicidal Post-Emergence Action
(§2) Seeds of monocotyledonous and dicotyledonous weed and crop plants are placed into sandy loam in wood fibre pots or in plastic pots, covered with soil and cultivated in a greenhouse, during the vegetation period also outdoors outside of the greenhouse, under good growth conditions. 2-3 weeks after sowing, the test plants are treated at the one- to three-leaf stage. The test compounds, formulated as wettable powders (WP) or emulsifiable concentrates (EC) are, in various dosages with a water application rate of 300 l/ha (converted), with wetting agent (0.2 to 0.3%) added, sprayed onto the plants and the surface of the soil. 3-4 weeks after the treatment of the test plants, the effect of the preparations is rated visually in comparison to untreated controls (herbicidal effect in per cent (%): 100%=the plants have died, 0% effect=like control plants).
(§3) If it is additionally to be tested as to whether safeners can improve the crop plant compatibility of test substances in the case of crop plants, the following options are used for applying the safener: • seeds of the crop plants are, before sowing, dressed with the safener substance (the amount of safener stated in per cent, based on the weight of the seed) • before the application of the test substances, the crop plants are sprayed with the safener at a certain application rate per hectare (usually 1 day before the application of the test substances) • the safener is applied together with the test substance as a tank mix (the amount of safener is stated in g/ha or as a ratio, based on the herbicide).
(§4) By comparing the effect of the test substances on crop plants without or with safener treatment, it is possible to assess the effect of the safener substance.

barley = assay: as above; assay type: in vivo
Protocol: as §1, §2, §3, §4

maize = assay: Herbicidal post-emergence action with/without safener (Example H, container trials with maize in a greenhouse); assay type: in vivo; settings: 12.5 g of a.i./ha, without safener
Protocol: as §1
as §2, with “plants). […]” for “plants).”

[1] = log P determination by HPLC on reverse-phase column (C 18), EEC-Directive 79/831 Annex V.A8; assay type: physicochemical; settings: compounds of formula (I-2-a); generally isomer mixtures; those marked 1) were separated into cis and trans diastereomers
Protocol: • The log P values given in the tables and preparation examples above are determined in accordance with EEC-Directive 79/831 Annex V.A8 by HPLC (High Performance Liquid Chromatography) on a reverse-phase column (C 18). Temperature: 43° C.
The determination is carried out in the acidic range at pH 2.3 using the mobile phases 0.1% aqueous phosphoric acid and acetonitrile; linear gradient from 10% acetonitrile to 95% acetonitrile.
The LC-MS determination in the acidic range is carried out at pH 2.7 using the mobile phases 0.1% aqueous formic acid and acetonitrile (contains 0.1% formic acid); linear gradient from […] acetonitrile to 95% acetonitrile.
The LC-MS determination in the neutral range is carried out at pH 7.8 using the mobile phases 0.001 molar aqueous ammonium bicarbonate solution and acetonitrile; linear gradient from 10% acetonitrile to 95% acetonitrile.
The calibration is carried out using unbranched alkan-2-ones (with 3 to 16 carbon atoms) with known log P values (determination of the log P values by retention times using linear interpolation between two successive alkanones).

[2] = outdoors, 12.5 g of a.i./ha, without safener (trial with mefenpyr 1 day prior)
[3] = outdoors, 25 g of a.i./ha, without safener (tank mix trial)
[4] = outdoors, 25 g of a.i./ha, without safener (trial with mefenpyr 1 day prior)
[5] = outdoors, 50 g of a.i./ha, without safener (tank mix trial)
[6] = outdoors, 50 g of a.i./ha, without safener (trial with mefenpyr 1 day prior)
[7] = outdoors, 100 g of a.i./ha, without safener (tank mix trial), listed as Ex. I-1-a-43
[8] = outdoors, 100 g of a.i./ha, without safener (trial with mefenpyr 1 day prior)
[9] = tank mix post-emergence, 20 g of a.i./ha, without safener
[10] = tank mix post-emergence, 80 g of a.i./ha, without safener
[11] = greenhouse, 50 g of a.i./ha, without safener
[12] = greenhouse, 100 g of a.i./ha, without safener
[13] = greenhouse, 25 g of a.i./ha, without safener
[14] = greenhouse, 6.25 g of a.i./ha, without safener
[15] = greenhouse, 12.5 g of a.i./ha, without safener
[16] = greenhouse, 3.125 g of a.i./ha, without safener
[17] = outdoors, 100 g of a.i./ha, without safener (tank mix trial), listed as Ex. I-1-a-1

CCCCOC1CCCC2(C1)NC(=O)C(c1c(C)cc(C)cc1C)=C2O (single isomer, unassigned) [Example I-1-a-43]
Summer wheat observed (%) (Summer wheat; [2]): 30% | Summer wheat observed (%) (Summer wheat; [3]): 40% | Summer wheat observed (%) (Summer wheat; [4]): 60% | Summer wheat observed (%) (Summer wheat; [5]): 50% | Summer wheat observed (%) (Summer wheat; [6]): 15% | Summer wheat observed (%) (Summer wheat; [7]): 60% | Summer wheat observed (%) (Summer wheat; [8]): 30% | Summer barley observed (%) (barley; [2]): 10% | Summer barley observed (%) (barley; [3]): 40% | Summer barley observed (%) (barley; [4]): 70% | Summer barley observed (%) (barley; [5]): 50% | Summer barley observed (%) (barley; [6]): 20% | Summer barley observed (%) (barley; [7]): 60% | Summer barley observed (%) (barley; [8]): 30% | Summer barley (Scarlett) observed (%) (barley; [9]): 30% | Winter barley observed (%) (barley; [9]): 20% | Summer barley (Baronesse) observed (%) (barley; [10]): 30% | Winter barley observed (%) (barley; [10]): 30%

CCCOC1CCCC2(C1)NC(=O)C(c1c(C)cc(C)cc1C)=C2O (single isomer, unassigned) [Example I-1-a-19]
Summer barley observed (%) (barley; [11]): 25% | Summer barley observed (%) (barley; [12]): 30%

CCOC(=O)OC1=C(c2c(Br)cc(C)cc2CC)C(=O)NC12CCCC(OCC)C2 (single isomer, unassigned) [Ex. I-1-c-9]
Summer wheat observed (%) (Summer wheat; [11]): 30% | Summer wheat observed (%) (Summer wheat; [12]): 60%

CCCCOC1CCCC2(C1)NC(=O)C(c1c(Cl)cc(Br)cc1CC)=C2OC(=O)C(C)C (single isomer, unassigned) [Ex. I-1-b-9]
Summer wheat observed (%) (Summer wheat; [13]): 20% | Summer wheat observed (%) (Summer wheat; [11]): 90% | Summer barley observed (%) (barley; [13]): 30% | Summer barley observed (%) (barley; [11]): 90%

CCCCOC1CCCC2(C1)NC(=O)C(c1c(Cl)cc(Br)cc1CC)=C2OC(=O)COC (single isomer, unassigned) [Ex. I-1-b-8]
Summer wheat observed (%) (Summer wheat; [13]): 30% | Summer wheat observed (%) (Summer wheat; [11]): 50% | Summer barley observed (%) (barley; [13]): 30% | Summer barley observed (%) (barley; [11]): 70%

CCCCOC1CCCC2(C1)NC(=O)C(c1c(Br)cc(C)cc1CC)=C2O (single isomer, unassigned) [Example I-1-a-17]
Summer wheat observed (%) (Summer wheat; [14]): 10% | Summer wheat observed (%) (Summer wheat; [15]): 60% | Summer wheat observed (%) (Summer wheat; [13]): 70%

CCCOC1CCCC2(C1)NC(=O)C(c1c(Br)cc(C)cc1CC)=C2O (single isomer, unassigned) [Example I-1-a-12]
Summer wheat observed (%) (Summer wheat; [14]): 10% | Summer wheat observed (%) (Summer wheat; [15]): 97% | Summer barley observed (%) (barley; [16]): 30% | Summer barley observed (%) (barley; [14]): 97% | Summer barley observed (%) (barley; [15]): 99%

CCOC(=O)OC1=C(c2c(Br)cc(C)cc2CC)C(=O)NC12CCCC(OC)C2 (single isomer, unassigned) [Ex. I-1-c-10]
Summer wheat observed (%) (Summer wheat; [15]): 60% | Cecilia Mais observed (%) (maize): 40%

CCc1cc(C)cc(Br)c1C1=C(O)C2(CCCC(OC)C2)NC1=O (single isomer, unassigned) [Example I-1-a-14]
Summer wheat observed (%) (Summer wheat; [15]): 30% | Summer wheat observed (%) (Summer wheat; [13]): 93% | Summer barley observed (%) (barley; [15]): 30% | Summer barley observed (%) (barley; [13]): 93%

CCCCOC1CCCC2(C1)NC(=O)C(c1c(C)cc(C)cc1C)=C2O (centres unmarked) [Example I-1-a-1]
Summer wheat observed (%) (Summer wheat; [17]): 35% | Summer barley observed (%) (barley; [17]): 70%

CCc1cc(C)cc(Br)c1C1=C(OC(=O)C(C)C)C2(CCCC(OC)C2)NC1=O (single isomer, unassigned) [Ex. I-1-b-11]
Summer wheat observed (%) (Summer wheat; [13]): 10% | Summer wheat observed (%) (Summer wheat; [11]): 70%

COC1CCCC2(C1)NC(=O)C(c1c(C)cc(C)cc1C)=C2O (mixture of isomers) [Example I-1-a-2]
Summer wheat observed (%) (Summer wheat; container trial in a greenhouse, application rate 100 g of a.i./ha, without safener): 60%

CCOC1CCCC2(C1)NC(=O)C(c1c(Br)cc(C)cc1CC)=C2O (single isomer, unassigned) [Example I-1-a-18]
Summer wheat observed (%) (Summer wheat; [16]): 30% | Summer wheat observed (%) (Summer wheat; [14]): 40% | Summer wheat observed (%) (Summer wheat; [15]): 95% | Summer barley observed (%) (barley; [14]): 50% | Summer barley observed (%) (barley; [15]): 93%

CCCCOC1CCCC2(C1)OC(=O)C(c1ccc(C)cc1C)=C2O (centres unmarked) [I-2-a-58]
logP [1]: 3.32

COC1CCCC2(C1)OC(=O)C(c1cc(C)c(Br)cc1Br)=C2O (centres unmarked) [Example I-2-a-18]
logP [1]: 2.58

COC1CCCC2(C1)OC(=O)C(c1cc(F)c(C)cc1C)=C2O (mixture of isomers) [Example I-2-a-45]
logP [1]: 2.25

COC1CCCC2(C1)OC(=O)C(c1c(C)ccc(-c3ccc(Cl)cc3)c1C)=C2O (mixture of isomers) [Example I-2-a-42]
logP [1]: 3.29

CCCCOC1CCCC2(C1)NC(=O)C(c1c(Br)cc(C)cc1CC)=C2OC(=O)COC (single isomer, unassigned) [Ex. I-1-b-14]
Summer wheat observed (%) (Summer wheat; [16]): 20% | Summer wheat observed (%) (Summer wheat; [14]): 30%

COc1cc(C)cc(C)c1C1=C(O)C2(CCCC(OC)C2)OC1=O (single isomer, unassigned) [Example I-2-a-16]
logP [1]: 2.10^1)

COC1CCCC2(C1)OC(=O)C(c1ccc(Cl)cc1Cl)=C2O (mixture of isomers) [Example I-2-a-39]
logP [1]: 2.21
